Experimental data as given in article PMC4113355, “Carbamoylating Activity Associated with the Activation of the Antitumor Agent Laromustine Inhibits Angiogenesis by Inducing ASK1-Dependent Endothelial Cell Death” (PLoS ONE, 2014).

Biological target: T1, Trx reductase-1 (TrxR1) (Rattus norvegicus, UniProt O89049)
T1 construct: gene Txnrd1
T1 sequence (O89049 1-499): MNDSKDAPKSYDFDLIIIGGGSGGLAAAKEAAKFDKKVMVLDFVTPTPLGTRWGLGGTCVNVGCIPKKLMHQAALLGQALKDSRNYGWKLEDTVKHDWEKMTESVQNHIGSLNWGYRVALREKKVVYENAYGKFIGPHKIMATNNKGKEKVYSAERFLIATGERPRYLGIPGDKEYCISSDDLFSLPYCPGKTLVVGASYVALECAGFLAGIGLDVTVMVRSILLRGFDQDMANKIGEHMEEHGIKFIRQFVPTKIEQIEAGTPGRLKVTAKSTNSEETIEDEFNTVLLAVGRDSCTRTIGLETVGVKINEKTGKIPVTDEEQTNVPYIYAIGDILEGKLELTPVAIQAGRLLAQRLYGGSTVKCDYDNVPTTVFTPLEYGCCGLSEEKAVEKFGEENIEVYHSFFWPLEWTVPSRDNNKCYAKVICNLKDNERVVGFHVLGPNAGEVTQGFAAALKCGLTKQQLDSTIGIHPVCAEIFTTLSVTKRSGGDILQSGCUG
Assay: DTNB reduction assay with purified TrxR1, […] h pre-incubation with NADPH at pH […]

Row | SMILES | IC50 [µM]
1 | CNC(=O)N(NS(C)(=O)=O)S(C)(=O)=O [101MDCE, 1,2-bis(methylsulfonyl)-1-[(methylamino)carbonyl]hydrazine] | 9.9 ± 3.1
2 | O=NN(CCCl)C(=O)NCCCl [BCNU, 1,3-bis(2-chloroethyl)-1-nitrosourea] | 5.4 ± 1.4
3 | CNC(=O)N(N(CCCl)S(C)(=O)=O)S(C)(=O)=O [Laromustine, 1,2-bis(methylsulfonyl)-1-(2-chloroethyl)-2-[(methylamino)carbonyl]hydrazine] | 5 ± 1.1
